Measured values reported in patent US5658925A, “Aminobenzoic acid derivatives” (Eisai Co., Ltd., priority 1993, dated 1997).
Structures can show the parent of a compound that is named as a salt. Where two headings read alike, the source gives them in different places.

Columns and labels:
[1] = test system: cisplatin-induced vomiting; experiment: Activity against cisplatin-induced vomiting of beagle; format: in vivo; details: through the vein of forefoot, one hour after 3 mg/kg cisplatin, 5-hour period
Method: [Experimental Example 2] Activity against cisplatin-induced vomiting of beagle
Beagles weighing 7 to 12 kg were used. 3 mg/kg of cisplatin (a product of Sigma) (1 ml/kg of physiological saline) was administered to each beagle through the vein of one of its forefeet. One hour after the administration, physiological saline (0.2 ml/kg) was administered to a control group of beagles and a solution of a test compound in physiological saline was administered to a test group of beagles, each through the vein of the other forefoot. The frequency of vomiting observed over a 5-hour period from the administration of cisplatin was recorded and the inhibitory ratio of the test compound was calculated according to the following formula.

serotonin 4 = molecular target: T1, serotonin 4 (Rattus norvegicus, UniProt Q62758); experiment: Effect of relaxing the contraction of muscular layer of esophageal mucosa of rat by stimulation with carbachol (activity of serotonin 4 as agonist); format: cell-based
T1 construct: The esophagus of a rat was extirpated and freed from the outer tunica propria to obtain the muscular layer of mucosa; from tissue; host or cells: muscular layer of mucosa of rat esophagus
Method: This experiment was made according to the method of Baxter et al. [see Naunyn-Schmiedeberg's Arch. […] The esophagus of a rat was extirpated and freed from the outer tunica propria to obtain the muscular layer of mucosa. […] A load of 0.5 g was applied to each sample and the reaction was recorded isometrically. 1 μM of carbachol was added to each sample to cause contraction, followed by the cumulative addition thereto of a solution of a test compound. The effect of the test compound was determined as the ratio (%) of relaxation based on the maximum contraction caused by carbachol.

serotonin 3 = molecular target: T2, serotonin 3 (Cavia porcellus, UniProt O70212); experiment: Antagonism against 2-methyl-serotonin-induced contraction of ileum (serotonin 3 antagonism); format: cell-based, guinea pig (Hartley male); details: vs 2-methylserotonin, 30 minutes with test compound, 37° C.
T2 construct: from tissue; host or cells: nonterminal ileum of Hartley male guinea pig
T2 sequence (O70212 20-490): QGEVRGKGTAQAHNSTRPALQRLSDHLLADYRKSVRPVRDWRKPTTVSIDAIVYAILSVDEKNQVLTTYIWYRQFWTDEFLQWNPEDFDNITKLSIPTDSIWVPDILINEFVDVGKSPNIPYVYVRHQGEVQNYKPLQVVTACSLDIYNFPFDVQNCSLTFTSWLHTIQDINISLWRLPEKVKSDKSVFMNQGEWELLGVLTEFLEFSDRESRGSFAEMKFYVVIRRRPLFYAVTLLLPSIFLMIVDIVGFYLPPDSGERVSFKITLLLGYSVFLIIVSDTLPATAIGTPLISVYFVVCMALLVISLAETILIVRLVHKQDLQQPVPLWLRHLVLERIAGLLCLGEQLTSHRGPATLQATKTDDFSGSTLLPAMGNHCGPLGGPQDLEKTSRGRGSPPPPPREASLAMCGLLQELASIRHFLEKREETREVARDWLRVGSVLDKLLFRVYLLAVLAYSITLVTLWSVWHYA
Method: [Experimental Example 1] Antagonism against 2-methyl-serotonin-induced contraction of ileum (serotonin 3 antagonism)
This experiment was made according to the method of Sanger et al. [see Eur. J. Pharmacol., 159, 113-124 (1989)]. The nonterminal ileum of a Hartley male guinea pig was suspended in the Krebs solution (37° C.) by applying a load of 0.5 g, and a gaseous mixture comprising 95% of oxygen and 5% of carbon dioxide was passed through the solution. The contraction of the ileum was isometrically determined. After allowing the ileum to stand for one or more hours for stabilization, a solution of a test compound was added to the solution, and after 30 minutes, 2-methylserotonin was noncumulatively added. The pA2 value was calculated from the rightward shift of the dose-response curve of the 2-methylserotonin-induced contraction caused by the test compound according to the method of Rossum et al. [see Arch. Int. Pharmacodyn. 143, 299(1963)]. BRL 24924 (Renzapride) was used as a control in this experiment.
The structural formula of BRL 24924 is as follows: [drawing 19]

[2] = test system: gastric emptying function; experiment: Activity for increasing gastric emptying function; format: in vivo, rat (Fischer male); details: oral, one hour before test food, *: minimum effective dose
Method: [Experimental Example 3] Activity for increasing gastric emptying function
This experiment was made according to the method of Decktor et al. [see Eur. J. Pharmacol., 147, 313-316 (1988)]. Fischer male rats (weight: 160 to 180 g) were fasted for 18 hours before 3 ml of a test food comprising methylcellulose, beef bouillon, casein, sugar and corn starch was orally administered to each rat. One hour after the administration, the stomach was extirpated from each rat. The gastric emptying ratio was calculated from the weight of the test food remaining in the stomach. The percentage increment of the gastric emptying function was determined by comparing the gastric emptying ratio of a medicated rat with that of a control rat. Each test compound (5 ml/kg) was orally administered one hour before the administration of the test food. BRL 24924 was used as a control in this experiment.

[3] = 50% relaxation of maximum contraction caused by 1 μM carbachol, cumulative addition, 37° C., read-out: Effect of relaxing the muscular layer of esophageal mucosa of rat EC50
[4] = guinea pig nonterminal ileum, read-out: pA2 (converted)
[5] = pA2, guinea pig nonterminal ileum

T1 sequence (Q62758 whole entry): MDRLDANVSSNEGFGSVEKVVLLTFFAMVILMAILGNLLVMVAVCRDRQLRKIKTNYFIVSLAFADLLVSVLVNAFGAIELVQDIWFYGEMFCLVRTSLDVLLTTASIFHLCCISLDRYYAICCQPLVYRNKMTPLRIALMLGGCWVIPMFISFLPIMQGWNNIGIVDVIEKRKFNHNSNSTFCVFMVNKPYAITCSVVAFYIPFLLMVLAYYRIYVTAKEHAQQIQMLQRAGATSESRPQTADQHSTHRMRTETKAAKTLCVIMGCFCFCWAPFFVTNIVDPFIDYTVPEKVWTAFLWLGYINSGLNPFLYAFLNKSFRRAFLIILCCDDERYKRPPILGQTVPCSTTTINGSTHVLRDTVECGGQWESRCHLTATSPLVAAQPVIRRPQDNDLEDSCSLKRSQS

SMILES	EC50 (serotonin 4; [3])	Percentage increment of gastric emptying function (%) ([2]; 0.03 mg/kg)	Percentage increment of gastric emptying function (%) ([2]; 0.1 mg/kg)	Percentage increment of gastric emptying function (%) ([2]; 0.3 mg/kg)	further results
CC#C[C@H](C)Oc1cc(N)c(Cl)cc1C(=O)NC1CCN2CCOC1C2 (single isomer, unassigned) [20 fraction 1]	60 nM	8.9%	22.9%	11.5%	Inhibitory ratio against cisplatin-induced vomiting (%) ([1]; 0.1 mg/kg): 22%; Kb (serotonin 3; [4]): 63.1 nM; Percentage increment of gastric emptying function (%) ([2]; 0.01 mg/kg): 3.9%
CC#C[C@H](C)Oc1cc(N)c(Cl)cc1C(=O)NC1CCN2CCOC1C2 (single isomer, unassigned) [20 fraction 2]	33 nM	14.0%	23.3%	21.8%	Inhibitory ratio against cisplatin-induced vomiting (%) ([1]; 0.03 mg/kg): 14%; Inhibitory ratio against cisplatin-induced vomiting (%) ([1]; 0.1 mg/kg): 24%; Kb (serotonin 3; [4]): 12.6 nM
CC#C[C@H](C)Oc1cc(N)c(Cl)cc1C(=O)NC1CC2CC(OC)C(C1)N2C (single isomer, unassigned) [28 fraction 1]	> 10000 nM				
CC#C[C@H](C)Oc1cc(N)c(Cl)cc1C(=O)NC1CC2CC(OC)C(C1)N2C (single isomer, unassigned) [28 fraction 2]	> 10000 nM				
CC#C[C@H](C)Oc1cc(N)c(Cl)cc1C(=O)NC1CCN2CCCC1C2 (single isomer, unassigned) [31 fraction 1]	44 nM	0.8%	0.8%	14.1%	Kb (serotonin 3; [4]): 63.1 nM
CC#C[C@H](C)Oc1cc(N)c(Cl)cc1C(=O)NC1CCN2CCCC1C2 (single isomer, unassigned) [31 fraction 2]	190 nM	24.6%	25.8%	33.2%	Inhibitory ratio against cisplatin-induced vomiting (%) ([1]; 0.03 mg/kg): 63%; Inhibitory ratio against cisplatin-induced vomiting (%) ([1]; 0.1 mg/kg): 92%; Kb (serotonin 3; [4]): 5.01 nM; Percentage increment of gastric emptying function (%) ([2]; 0.01 mg/kg): 4.5%
CC#C[C@H](C)Oc1cc(N)c(Cl)cc1C(=O)NC1CCC2CCC1N2C (single isomer, unassigned) [53 fraction 2-1]	300 nM	22.2%	26.7%	29.0%	Kb (serotonin 3; [5]): 2.51 nM; Percentage increment of gastric emptying function (%) ([2]; 0.01 mg/kg): 14.4%
CC#C[C@H](C)Oc1cc(N)c(Cl)cc1C(=O)NC1CCC2CCC1N2C (single isomer, unassigned) [53 fraction 2-2]	180 nM	6.6%	21.3%	28.8%	Kb (serotonin 3; [5]): 12.6 nM
CC#C[C@H](C)Oc1cc(N)c(Cl)cc1C(=O)NC1CCC2CCC1N2C (single isomer, unassigned) [53 fraction 2]	310 nM		14.4%	16.1%	
COc1cc(N)c(Cl)cc1C(=O)NC1CCN2CCCC1C2 (centres unmarked) [BRL 24924, Renzapride, reference compound]	300 nM		1.9%	6.5%	Inhibitory ratio against cisplatin-induced vomiting (%) ([1]; 0.03 mg/kg): 19%; Inhibitory ratio against cisplatin-induced vomiting (%) ([1]; 0.1 mg/kg): 61%; Kb (serotonin 3; [4]): 251 nM; Percentage increment of gastric emptying function (%) ([2]; 1 mg/kg): 18.5%
CC#C[C@H](C)Oc1cc(N)c(Cl)cc1C(=O)NC1CC2COCC(C1)N2C (some centres unmarked) [Example 2]		19.7%	19.8%	30.6%	Inhibitory ratio against cisplatin-induced vomiting (%) ([1]; 0.03 mg/kg): 14%; Inhibitory ratio against cisplatin-induced vomiting (%) ([1]; 0.1 mg/kg): 53%; EC50 (serotonin 4): 82 nM; Percentage increment of gastric emptying function (%) ([2]; 0.01 mg/kg): 20.5%
CC#C[C@H](C)Oc1cc(N)c(Cl)cc1C(=O)NC1CC2CCCC(C1)N2C (some centres unmarked) [Example 4, hydrochloride]	1300 nM				
CC#C[C@H](C)Oc1cc(N)c(Cl)cc1C(=O)NC1CCN2CCCC1C2 (stereo partly drawn) [Example 6, N-(1-Azabicyclo[3.3.1]non-4α-yl)-4-amino-5-chloro-2-((S-1-methyl-2-butynyl/oxybenzamide hydrochloride]	110 nM				Inhibitory ratio against cisplatin-induced vomiting (%) ([1]; 0.1 mg/kg): 77%; Kb (serotonin 3; [4]): 20 nM
CC#C[C@H](C)Oc1cc(N)c(Cl)cc1C(=O)NC1CCN2CCOC1C2 (stereo partly drawn) [Example 15, N-(4-Oxa-1-azabicyclo[3.3.1]non-6α-yl)-4-amino-5-chloro-2-((S)-1-methyl-2-butynyl/oxybenzamide hydrochloride]	35 nM		24.6%	30.6%	
CC#C[C@H](C)Oc1cc(N)c(Cl)cc1C(=O)NC1CC2CN(C)CC(C1)N2C (stereo partly drawn) [Example 19, (S)-N-(3,9-Dimethyl-3,9-diazabicyclo[3.3.1]non-7α-yl)-4-amino-5-chloro-2-(1-methyl-2-butynyl/oxybenzamidedihydrochloride]	> 10000 nM				
CC#C[C@H](C)Oc1cc(N)c(Cl)cc1C(=O)NC1CC2CCC(C1)N2 (some centres unmarked) [Example 29]	> 10000 nM				
CC#C[C@H](C)Oc1cc(N)c(Cl)cc1C(=O)NC1C2CCC1CN(C)C2 (stereo partly drawn) [Example 35, (S)-N-(3-Methyl-3-azabicyclo[3.2.1]oct-8α-yl) -4-amino-5-chloro-2-(1-methyl-2-butynyl)oxybenzamide hydrochloride]	2000 nM				
CC#CC(CCOCC)Oc1cc(N)c(Cl)cc1C(=O)NC1CC2CCC(C1)N2C (stereo not drawn) [Example 42, N-(8Methyl-8-azabicylo[3.2.1]oct-3α-yl)-4-amino-5-chloro-2-(1-ethoxyethyl-2-butynyl]oxybenzamide hydrochloride]	6200 nM				
CC#C[C@H](C)Oc1cc(N)c(Cl)cc1C(=O)NC1C2CN(C)CC1CN(C)C2 (stereo partly drawn) [Example 44, (S)-N-(3,7-Dimethyl-3,7-diazabicyclo[3.3.1]non-9-yl)-4-amino-5-chloro-2-(1-methyl-2-butynyl)oxybenzamide hydrochloride]					EC50 (serotonin 4): 110 nM
CC#C[C@H](C)Oc1cc(N)c(Cl)cc1C(=O)NC1CC2CC(OCC)CC(C1)N2C (stereo partly drawn) [Example 50, (S)-N-(3-Ethoxy-9-methyl-9-azabicyclo[3.3.1]-1non-9α- or 9β-yl)-4-amino-5-chloro-2-(1-methyl-2-butynyl)oxybenzamide hydrochloride]	> 10000 nM				
CC#C[C@H](C)Oc1cc(N)c(Cl)cc1C(=O)NC1C2CC3CC1CN(C3)C2 (stereo partly drawn) [Example 55, (S)-N-(1-Azatricyclo[3.3.1.1^3,7]dec-10-yl)-4-amino-5-chloro-(1-methyl-2-butynyl)oxybenzamide hydrochloride]	640 nM				
